Patent publication US11707464B2, “Methods of treating heavy menstrual bleeding” (AbbVie Inc., priority 2013, dated 2023)

How the values were obtained:
Assay type in all cases: in vivo, human
[1] = system: premenopausal women with uterine fibroids and heavy menstrual bleeding; test: Phase 2a uterine fibroid trial: menstrual blood loss by alkaline hematin (AH) method; details: for percent of subjects who achieved the composite bleeding endpoint (MBL <80 mL at Final Month and ≥50% reduction in MBL from baseline): last 28 days of treatment, AH method, placebo 30%; for Average Total Blood Loss Measured by AH Method During Treatment: 3 months of treatment; for Average Blood Loss Per Cycle Measured by AH Method in Screening: screening (baseline before treatment)
Method: Methods for analyzing menstrual blood loss are known in the art and include, for example, the alkaline hematin method. The alkaline hematin method is based on the quantitation of menstrual blood collected on sanitary products (Hallberg L., Nilsoon L., Determination of Menstrual Blood Loss. Scand. J. Clin. Lab. Invest., 1964; 16:244-248). The method uses a strong alkaline solution to chemically convert the heme from bloodstained sanitary products to alkaline hematin, which is measured colorimetrically. When compared to a subject's serum hemoglobin (Hgb), the volume of blood loss in the menstrual products can be determined.
This example is a Phase 2a, multicenter, double-blind, placebo-controlled, randomized trial (N=280) with a 3-month treatment duration evaluating the safety and efficacy of Elagolix administered with or without Activella® in premenopausal women with uterine fibroids.
It evaluates the safety and efficacy of […] of Elagolix (100 mg BID, 200 mg BID, 200 mg BID plus low dose Activella® (a combination of 0.5 mg estradiol and 0.1 mg northindrone acetate), 300 mg BID, 300 mg BID plus 1.0 mg of Estrace and 200 mg cyclical Prometrium (collectively referred to as “EP”), 400 mg QD and 600 QD) versus placebo (PBO) to reduce uterine bleeding associated with uterine fibroids and to reduce fibroid volume and uterine volume in premenopausal women 20 to 49 years of age with heavy menstrual bleeding (HMB; >80 mL blood loss per menstrual cycle). The study involved the following six (6) cohorts:
There are a number of efficacy endpoints, but a composite endpoint consisting of two bleeding assessments was used to assess one measure of efficacy. It included the percent of subjects who achieved a menstrual blood loss (MBL) volume of <80 mL at the Final Month (last 28 days of treatment), and also achieved a ≥50% reduction in MBL volume from baseline to the Final Month (last 28 days of treatment) as measured by the Alkaline Hematin (AH) method. Eighty-five percent (85%), 97%, and 30% of subjects achieved the composite bleeding assessment endpoint in the 200 mg BID, 300 mg BID, and placebo groups, respectively (P<0.05 for 200 mg BID versus placebo in cohort 1, and 300 mg BID versus placebo in cohort 2). Eighty-two percent (82%) of subjects in the 200 mg BID+low-dose Activella® (low dose Activella® is a combination of (a combination of 0.5 mg estradiol and 0.1 mg norethindrone acetate) group achieved this composite endpoint. With respect to fibroid and uterine volumes, 63%, 55%, and 29% of subjects achieved a ≥25% reduction in fibroid volume and 50%, 68%, and 9% achieved a ≥25% reduction in uterine volume in the 200 mg BID, 300 mg BID, and placebo groups, respectively. In the 200 mg BID+low dose group, 53% and 42% of subjects achieved a ≥25% reduction in fibroid and uterine volume, respectively. Quality of life (QoL) measures were also determined using the “Responsiveness of the uterine fibroid symptom and health-related quality of life questionnaire” (UFS-QOL) (Harding, Gale, Coyne Karin S., Thompson Christine L., Spies James B, United BioSource Corporation, 7101 Wisconsin Avenue, Suite 600, Bethesda, Md., 20814, USA, Health and Quality Life Outcomes, 2008, 6, page 99).

women = test: Suppression of pituitary and ovarian hormones in women
Text: The term “Elagolix” refers to 4-((R)-2-[5-(2-fluoro-3-methoxy-phenyl)-3-(2-fluoro-6-trifluoromethyl-benzyl)-4-methyl-2,6-dioxo-3,6-dihydro-2H-pyrimidin-1-yl]-1-phenyl-ethylamino)-butyric acid or a pharmaceutically acceptable salt thereof. Elagolix is an orally active, non-peptide GnRH antagonist and is unlike other GnRH agonists and injectable (peptide) GnRH antagonists. […] Methods of making Elagolix and a pharmaceutically acceptable salt thereof are described in WO 2005/007165, the contents of which are herein incorporated by reference.

women with endometriosis = test: Phase 2 endometriosis studies: safety and tolerability
Text: The safety and tolerability of elagolix in women with endometriosis has been evaluated in 6 completed Phase 2 studies including 708 women who received at least 1 dose of elagolix. Overall, 475 women have received elagolix for at least 12 weeks and 278 women for a period of at least 24 weeks. The majority of women were Caucasian (78.9% to 100%), while approximately 7% were black and approximately 4.5% were Hispanic. The mean age across these six Phase 2 studies was 31 to 33 years (range 18 to 48 years) and mean body mass index (BMI) of 23 to 28 kg/m. Overall, 40% to 70% of women had received prior therapy for the treatment of endometriosis, and hormonal contraceptives were the most common class of drug prescribed for the condition. In addition, the majority were receiving analgesic medications (nonsteroidal anti-inflammatory drugs, opioids, and/or other) prior to study enrollment.
None of these events were serious and they contributed to less than 1% of study discontinuations.

Structure (SMILES): COc1cccc(-c2c(C)n(Cc3c(F)cccc3C(F)(F)F)c(=O)n(C[C@H](NCCCC(=O)O)c3ccccc3)c2=O)c1F [Elagolix, 4-((R)-2-[5-(2-fluoro-3-methoxy-phenyl)-3-(2-fluoro-6-trifluoromethyl-benzyl)-4-methyl-2,6-dioxo-3,6-dihydro-2H-pyrimidin-1-yl]-1-phenyl-ethylamino)-butyric acid]
- percent of subjects who achieved the composite bleeding endpoint (MBL <80 mL at Final Month and ≥50% reduction in MBL from baseline) ([1]; 200 mg BID): 85%
- inhibition of bleeding ([1]; 300 mg BID without add-back therapy, most of women achieved amenorrhea): maximum inhibition of bleeding
- percent of subjects who achieved the composite bleeding endpoint (MBL <80 mL at Final Month and ≥50% reduction in MBL from baseline) ([1]; 300 mg BID): 97%
- inhibition of bleeding ([1]; 400 mg QD, compared with 300 mg BID): slightly less effective
- inhibition of bleeding ([1]; 600 mg QD, compared with 300 mg BID): slightly less effective
- Average Total MBL from Days 36-65 Post-Baseline ([1]; Elagolix 100 BID, N = 26): 100.9 mL
- Average Total MBL in Days 66-95 Post-Baseline ([1]; Elagolix 100 BID, N = 26): 65.4 mL
- Average total MBL from days 6-35 post-baseline ([1]; Elagolix 100 BID, N = 26): 33.2 mL
- Average Total Blood Loss Measured by AH Method During Treatment ([1]; Elagolix 100 BID, N = 26): 198.4 mL
- Average Total MBL from Days 36-65 Post-Baseline ([1]; Elagolix 200 BID, N = 28): 5.5 mL
- Average Total MBL in Days 66-95 Post-Baseline ([1]; Elagolix 200 BID, N = 28): 41.5 mL
- Average total MBL from days 6-35 post-baseline ([1]; Elagolix 200 BID, N = 28): 0 mL
- Average Total Blood Loss Measured by AH Method During Treatment ([1]; Elagolix 200 BID, N = 28): 47.0 mL
- Average Total MBL from Days 36-65 Post-Baseline ([1]; Elagolix 300 BID, N = 26): 0 mL
- Average Total MBL in Days 66-95 Post-Baseline ([1]; Elagolix 300 BID, N = 26): 4.3 mL
- Average total MBL from days 6-35 post-baseline ([1]; Elagolix 300 BID, N = 26): 0 mL
- Average Total Blood Loss Measured by AH Method During Treatment ([1]; Elagolix 300 BID, N = 26): 4.3 mL
- Average Total MBL from Days 36-65 Post-Baseline ([1]; Elagolix 400 QD, N = 26): 12.4 mL
- Average Total MBL in Days 66-95 Post-Baseline ([1]; Elagolix 400 QD, N = 26): 21.6 mL
- Average total MBL from days 6-35 post-baseline ([1]; Elagolix 400 QD, N = 26): 14.9 mL
- Average Total Blood Loss Measured by AH Method During Treatment ([1]; Elagolix 400 QD, N = 26): 38.4 mL
- Average Total MBL from Days 36-65 Post-Baseline ([1]; Elagolix 600 QD, N = 24): 35.0 mL
- Average Total MBL in Days 66-95 Post-Baseline ([1]; Elagolix 600 QD, N = 24): 14.9 mL
- Average total MBL from days 6-35 post-baseline ([1]; Elagolix 600 QD, N = 24): 27.6 mL
- Average Total Blood Loss Measured by AH Method During Treatment ([1]; Elagolix 600 QD, N = 24): 69.6 mL
- Average Blood Loss Per Cycle Measured by AH Method in Screening ([1]; group Elagolix 100 BID, N = 26): 276.4 mL
- Average Blood Loss Per Cycle Measured by AH Method in Screening ([1]; group Elagolix 200 BID, N = 28): 287.4 mL
- Average Blood Loss Per Cycle Measured by AH Method in Screening ([1]; group Elagolix 300 BID, N = 26): 224.8 mL
- Average Blood Loss Per Cycle Measured by AH Method in Screening ([1]; group Elagolix 400 QD, N = 26): 220.3 mL
- Average Blood Loss Per Cycle Measured by AH Method in Screening ([1]; group Elagolix 600 QD, N = 24): 228.7 mL
- suppression of pituitary and ovarian hormones (women): dose dependent suppression
- most common adverse events (women with endometriosis; 12-week and 24-week analysis sets, incidence similar to DMPA-SC in 24-week analysis): headache and nausea
- safety and tolerability (women with endometriosis; all daily doses (100 to 250 mg) evaluated): safe and well tolerated
- incidence of AEs that led to discontinuations (women with endometriosis; completed Phase 2 endometriosis studies): 4.8%
- study discontinuations contributed by headache and nausea (women with endometriosis; none of these events serious): less than 1%
